The NIST ThermoML archive (doi:10.1021/acs.jced.8b00552)
Numbers after ± are expanded uncertainties.

What was measured:
[1] = Liquid, Ebulliometric method (Recirculating still)
[2] = refractive index (Na D-line) (dimensionless); settings: 293.15 K; 101.33 kPa; Liquid; Standard Abbe refractometry

Row | Compound | vapor or sublimation pressure ([1]; 333.65 K) | vapor or sublimation pressure ([1]; 343.55 K) | vapor or sublimation pressure ([1]; 348.55 K) | refractive index [2] | vapor or sublimation pressure ([1]; 332.65 K) | vapor or sublimation pressure ([1]; 342.63 K) | vapor or sublimation pressure ([1]; 349.06 K)
1 | CCCCCO [pentan-1-ol] | 3.43 ± 0.62 kPa | 5.9 ± 0.62 kPa | 7.67 ± 0.62 kPa | 1.41 ± 0.002 | – | – | –
2 | CC(C)CO [2-methyl-1-propanol] | – | – | – | 1.3957 ± 0.002 | 12.17 ± 0.63 kPa | 20.07 ± 0.63 kPa | 26.53 ± 0.64 kPa
3 | CCC(C)=O [butanone] | 52.42 ± 0.63 kPa | 74.79 ± 0.7 kPa | 88.29 ± 0.79 kPa | 1.3791 ± 0.002 | 51.76 ± 0.63 kPa | 72.71 ± 0.7 kPa | 90.1 ± 0.79 kPa
